The target of the test is T1, Phospho-EGFR in H1975 cell line (Homo sapiens, UniProt P00533, L858R/T790M).
T1 construct: H1975 cell line was obtained from American Type Culture Collection; host or cells: H1975
The test is described as follows: HTRF Phospo EGFR Assay (Cellular). Conditions: H1975 cells; 6 hours compound incubation in starving medium; HTRF anti-Phospho-EGFR readout. It is filed as cell-based. Here is the method: HTRF Phospo EGFR Assay (Cellular)
H1975 cell line was obtained from American Type Culture Collection (Manassas, Va., USA). Cells were maintained at 37° C., 5% CO2 in complete Media RPMI 1640 without phenol red containing 0.3 mg/ml glutamine, 100 IU/ml penicillin, and […] (Gibco) supplemented with 10% fetal bovine serum (FBS) (Gibco). Compounds were diluted into starving medium RPMI 1640 Media without phenol red containing 0.3 mg/ml glutamine, 100 IU/ml penicillin, and […] (Gibco).
Cells were cultured overnight in a 384-well white plate (8000 cells/well) using 8 μl of complete medium/well. Cells were washed two times with 20 μl of starving medium. Media was removed by tapping plates on tissue and subsequently 8 μl of fresh starving medium/well was added. Then 4 μl/well of the 3×compound solution, containing a half-log dilution series of the compound or DMSO in starving medium, were added to the cells. After 6 hours at 37° C., 5% CO2 cells were lysed by adding to the compound mix 4 μl/well of the supplemented lysis buffer, followed by incubation for 30 min at room temperature with shaking. Lysates were stored at −20° C. overnight. The following day plates were thawed and 2 μl of anti-Phospho-EGFR Cryptate and 2 μl of anti-Phospho-EGFR-d2 antibody solutions prepared in the detection buffer were added. The plates were then incubated for at least 4 h at room temperature before reading the fluorescence emission at 620 and 665 nm using PHERAstar FX plate reader (BMG Labtech).

pIC50: −log10 of the molar value.

T1 sequence (P00533 25-1210 T790M/L858R): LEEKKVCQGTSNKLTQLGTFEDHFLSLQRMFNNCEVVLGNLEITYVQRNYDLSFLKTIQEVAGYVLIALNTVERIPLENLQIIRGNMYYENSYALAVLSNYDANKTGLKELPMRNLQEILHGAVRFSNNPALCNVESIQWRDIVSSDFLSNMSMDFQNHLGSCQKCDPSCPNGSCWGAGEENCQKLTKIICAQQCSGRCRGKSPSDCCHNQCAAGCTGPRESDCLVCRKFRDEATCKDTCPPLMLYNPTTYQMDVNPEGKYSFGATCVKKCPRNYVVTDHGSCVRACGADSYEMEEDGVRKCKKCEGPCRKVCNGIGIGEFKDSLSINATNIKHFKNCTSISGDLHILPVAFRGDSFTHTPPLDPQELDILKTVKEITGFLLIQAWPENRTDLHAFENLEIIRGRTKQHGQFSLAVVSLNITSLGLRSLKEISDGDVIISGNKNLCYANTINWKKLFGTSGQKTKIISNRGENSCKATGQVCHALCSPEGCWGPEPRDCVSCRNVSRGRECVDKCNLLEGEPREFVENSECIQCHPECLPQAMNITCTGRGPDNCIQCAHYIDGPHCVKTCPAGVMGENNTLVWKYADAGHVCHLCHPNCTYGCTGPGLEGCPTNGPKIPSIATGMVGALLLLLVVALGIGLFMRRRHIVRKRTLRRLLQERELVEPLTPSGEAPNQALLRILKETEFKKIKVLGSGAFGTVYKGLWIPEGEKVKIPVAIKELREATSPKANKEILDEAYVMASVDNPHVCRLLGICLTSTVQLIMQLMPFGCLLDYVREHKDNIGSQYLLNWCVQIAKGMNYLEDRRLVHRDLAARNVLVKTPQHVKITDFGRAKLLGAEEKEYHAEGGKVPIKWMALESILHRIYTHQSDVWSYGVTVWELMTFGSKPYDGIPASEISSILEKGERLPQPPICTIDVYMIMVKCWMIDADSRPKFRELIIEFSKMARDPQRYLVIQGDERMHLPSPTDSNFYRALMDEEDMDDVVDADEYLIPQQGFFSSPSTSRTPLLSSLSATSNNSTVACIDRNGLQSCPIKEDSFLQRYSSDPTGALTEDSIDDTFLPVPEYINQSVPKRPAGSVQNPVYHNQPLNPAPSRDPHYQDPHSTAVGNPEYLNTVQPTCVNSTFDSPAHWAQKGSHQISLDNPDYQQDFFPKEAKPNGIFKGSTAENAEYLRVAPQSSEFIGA

With `O=C(Nc1nccs1)C(c1cc(F)ccc1O)N1Cc2ccc(C#Cc3ccc(CN4CCOCC4)cc3)cc2C1=O` (racemic) [Example 27, (2RS)-2-(5-Fluoro-2-hydroxy-phenyl)-2-[6-[2-[4-(morpholinomethyl)phenyl]ethynyl]-1-oxo-isoindolin-2-yl]-N-thiazol-2-yl-acetamide], the pIC50 was 8.30.

The compound `O=C(Nc1nccs1)C(c1cc(F)ccc1O)N1Cc2ccc(C#Cc3ccc(CN4CCC(O)CC4)cc3)cc2C1=O` (racemic) [Example 28, (2RS)-2-(5-Fluoro-2-hydroxy-phenyl)-2-[6-[2-[4-1(4-hydroxy-1-piperidyl)methyl]phenyllethynyl]-1-oxo-isoindolin-2-yl]-N-thiazol-2-yl-acetamide] showed a pIC50 of 8.15.

In turn, `O=C(Nc1nccs1)C(c1cc(F)ccc1O)N1Cc2ccc(C#Cc3ccc(CN4CCNCC4)cc3)cc2C1=O` (racemic) [Example 29, (2RS)-2-(5-Fluoro-2-hydroxy-phenyl)-2-[1-oxo-6-[2-[4-(piperazin-1-ylmethyl)phenyl]ethynyl]isoindolin-2-yl]-N-thiazol-2-yl-acetamide] showed a pIC50 of 8.10.

Compound `CN1CCN(Cc2ccc(C#Cc3ccc4c(c3)C(=O)N(C(C(=O)Nc3nccs3)c3cc(F)ccc3O)C4)cc2)CC1` (racemic) [Example 30, (2RS)-2-(5-Fluoro-2-hydroxy-phenyl)-2-[6-[2-[4-1(4-methylpiperazin-1-yl)methyl]phenyl]ethynyl]-1-oxo-isoindolin-2-yll-N-thiazol-2-yl-acetamide] gave a pIC50 of 8.15.

Regarding `CCN1CCN(Cc2ccc(C#Cc3ccc4c(c3)C(=O)N(C(C(=O)Nc3nccs3)c3cc(F)ccc3O)C4)cc2)CC1` (racemic) [Example 31, (2RS)-2-[6-[2-[4-1(4-Ethylpiperazin-1-yl)methyl]phenyl]ethynyl1-1-oxo-isoindolin-2-yl]-2-(5-fluoro-2-hydroxy-phenyl)-N-thiazol-2-yl-acetamide], the pIC50 was 8.15.

By pIC50 is commonly meant −log10 of the IC50, conventionally taken in molar units. Higher therefore signals a low IC50.

Source of the values: patent US11117890B2, “Substituted isoindole allosteric EGFR inhibitors” (Hoffmann-La Roche Inc., priority 2017, dated 2021).
